Measurements from patent US20070248630A1, “PHARMACEUTICAL FORMULATIONS FOR IONTOPHORETIC METHOTREXATE DELIVERY” (priority 2006, published 2007).

Experiments:
[1] = cited from earlier work
[2] = In vitro iontophoretic delivery of MTX through hairless (nude) rat skin, Franz diffusion cells; type: in vitro ADME
Protocol: The delivery of MTX under 30 mins of iontophoresis (0.4 mA/cm^2) was studied at buffer strengths 0.05-0.5 M and drug concentrations 10-20 mg/ml. The effect of current density and time of application on the delivery of MTX is studied by optimizing the full-factorial design. The current density (X1) and time of application (X2) are the independent factors chosen for the factorial design with 4 and 5 levels, respectively in the range of 0.05-0.5 mA (X1) and 10-120 mins (X2).
In vitro iontophoretic experiments (n≧3) were performed using freshly excised hairless rat skin mounted on vertical Franz diffusion cells with stratum corneum facing towards the donor chamber. The donor compartment contained 15 mg/ml of MTX in phosphate buffer of pH 7.4 (0.25 M) and the receptor compartment contained phosphate buffer of pH 7.4 (0.25 M) with 75 mM NaCl.
A silver-silver chloride electrode (cathode) was placed in the donor chamber and silver wire (anode) was placed in the receptor compartment. Samples were taken at periodic intervals and were analyzed by HPLC, using YMC RP 18 column. Mobile Phase was composed of monobasic sodium phosphate (10%) and Tris HCl buffer (90%). Flow rate was 1.5 ml/min and detection wavelength was 303 nm.

CN(Cc1cnc2nc(N)nc(N)c2n1)c1ccc(C(=O)N[C@@H](CCC(=O)O)C(=O)O)cc1 [MTX, Methotrexate]
charge at physiological pH [1]: negatively charged
delivery at 15 versus 20 mg/ml ([2]; 0.25 M buffer strength, 30 mins iontophoresis 0.4 mA/cm^2): not statistically different
amount of drug delivered, effect of MTX concentration 10 to 15 mg/ml ([2]; 0.25 M buffer strength, 30 mins iontophoresis 0.4 mA/cm^2, FIG. 2): increased
cumulative amount delivered, increase in current density from 0.05 to 0.5 mA ([2]; 10 min iontophoresis): did not show a statistically significant increase
cumulative amount of MTX delivered across hairless rat skin, effect of buffer ionic strength ([2]; 30 mins iontophoresis 0.4 mA/cm^2, buffer strengths 0.05-0.5 M, FIG. 1): increased with decrease in ionic strength of the buffer
delivery, increase in time of application from 10-120 mins ([2]; at 0.05 mA): did not show any enhanced delivery
maximal flux ([2]; buffer strength 0.25 M, drug concentration 15 mg/ml, across hairless rat skin): about 0.6 μg/cm^2-hr
cumulative amount of drug delivered versus model prediction ([2]; current density 0.4 mA/cm^2, ITP for 30 mins): in between the lower and upper 95% confidence level
cumulative amount of MTX delivered, effect of increase in current density and time of application ([2]; factorial design, 0.05-0.5 mA, 10-120 mins, 15 mg/ml MTX, phosphate buffer pH 7.4 0.25 M, FIG. 3, 4): also increased
